Data taken from the NIST ThermoML archive (doi:10.1016/j.tca.2015.01.012).

Details: 101.33 kPa, Crystal; for molar entropy: Small (less than 1 g) adiabatic calorimetry; for mass density: X-ray diffraction

O=C(O)c1cccnc1 [3-carboxylpyridine]
Details	mass density [kg/m3]	molar entropy [J/K/mol]
1 K	–	0.0005
2 K	–	0.004
3 K	–	0.0136
4 K	–	0.0323
5 K	–	0.063
6 K	–	0.1089
7 K	–	0.1788
8 K	–	0.2634
9 K	–	0.3747
10 K	–	0.5086
15 K	–	1.592
20 K	–	3.297
25 K	–	5.543
30 K	–	8.212
35 K	–	11.2
40 K	–	14.39
45 K	–	17.7
50 K	–	21.08
60 K	–	27.91
70 K	–	34.69
80 K	–	41.32
90 K	–	47.75
100 K	–	53.98
110 K	–	60.02
120 K	–	65.91
130 K	–	71.64
140 K	–	77.24
150 K	1481	82.72
160 K	–	88.1
170 K	–	93.38
175 K	1477	–
180 K	–	98.6
190 K	–	103.7
200 K	1471	108.9
210 K	–	113.9
220 K	–	119
225 K	1465	–
230 K	–	124
240 K	–	129
250 K	1460	134.1
260 K	–	139.1
270 K	–	144.2
273.15 K	–	145.7
275 K	1454	–
280 K	–	149.2
290 K	–	154.3
298.15 K	–	158.4
300 K	1444	159.3
310 K	–	164.4
320 K	–	169.5
325 K	1436	–
330 K	–	174.6
340 K	–	179.7
346 K	–	182.8
350 K	1430	–
375 K	1422	–
400 K	1413	–
425 K	1406	–
